Results reported in patent publication US20240226042A9, “A PROPYL PROPANE THI[…] FOR USE AS ANTITUMORAL” (DMC RESEARCH CENTER, SL, priority 2021, published 2024).

Legend:
[1] = test system: HT-29 (human colorectal carcinoma line); settings: HT-29 cells, 72 hours induction, SRB; means±SEM of six independent determinations
Experimental: (§1) Adherent cells (MCF-7, A-549, T-84, HT-29 and Panc-1), were detached from the surface of the culture flasks, using 3-4 ml of trypsin 1×, and left to act for 5-10 minutes in an incubator at 37° C. with 5% CO2. Once the cells were detached, the trypsinization was stopped, adding to the medium flask the same amount of complete culture as trypsin used to detach cells. After resuspending the mixture of trypsin and detached cells several times, the content of the culture flask was transferred to a sterile tube to centrifugation it for 5 minutes at 1500-1600 rpm.
(§2) Adherent cells were incubated for 24 hours to get cells attached to the surface of the flask. Then, the culture medium was replaced for a new medium, to which increasing concentrations of PTSO had been added, and the induction was conducted for 72 hours.

[2] = test system: MCF-7 (human breast adenocarcinoma line)
Experimental: as §1, §2

[3] = test system: Panc-1 (human pancreatic carcinoma line); settings: Panc-1 cells, 72 hours induction, SRB; means±SEM of six independent determinations
Experimental: as §1, §2

[4] = test system: A-549 (human lung adenocarcinoma line); settings: A-549 cells, 72 hours induction, SRB; means±SEM of six independent determinations
Source text: (§3) A-549 (Reference CCL-185 of the American Type Culture Collection): It is a tumor line of basal alveolar epithelium that comes from a pulmonary adenocarcinoma removed from a patient. These cells are squamous and can synthesize lecithin. T-84 (Reference CCL-248 of the American Type Culture Collection): It is a tumor line with epithelial morphology, isolated from a pulmonary metastasis of a colorectal carcinoma of a patient. These cells present receptors for a large group of hormones and neurotransmitters, and they produce carcinoembryonic antigen (CEA) and keratin, among other cellular products.
as §1
(§4) Adherent cells were incubated for 24 hours to get cells attached to the surface of the flask. […]

[5] = test system: T-84 (human colorectal adenocarcinoma line); settings: T-84 cells, 72 hours induction, SRB; means±SEM of six independent determinations
Source text: as §3, §1, §4

[6] = test system: Jurkat (human tumor T lymphocytes line)
Experimental: as §2

[7] = test system: normal human peripheral blood mononuclear cells (PBMCs); settings: normal PBMCs from healthy volunteers, 72 hours induction, MTT; means±SEM of six independent determinations
Experimental: as §2

rats = settings: OECD guideline 408, 90-days oral subchronic toxicity study; cited from earlier work

CCCSS(=O)(=O)CCC [PTSO, propyl propane thiosulfonate]
IC50 [1]: 50.8 µM
in vitro T.I (IC50 Normal Line/IC50 Tumor Line) ([2]; IC50 PBMCs / IC50 MCF-7 tumor line): 36.0
IC50 ([2]; MCF-7 cells, 72 hours induction, SRB, means±SEM of six independent determinations): 6.9 µM
IC50 [3]: 33.8 µM
IC50 [4]: 38.6 µM
IC50 [5]: 37.3 µM
in vitro T.I (IC50 Normal Line/IC50 Tumor Line) ([6]; IC50 PBMCs / IC50 Jurkat tumor line): 15.8
IC50 ([6]; Jurkat cells, 72 hours induction, MTT, means±SEM of six independent determinations): 15.7 µM
IC50 [7]: 248 µM
no-observed-adverse-effect level (NOAEL) (rats): 55 mg/kg/day
